The subject of the assay is S. aureus Mu3. In words: Secondary screening of compound 13 analogues in combination with gentamicin (growth by OD 595 nm). The conditions noted are these: for relative growth: relative to DMSO = 1; for inhibition at 50 µM / activity at 5 µM / activity at 20 µM / activity at 50 µM / inhibition at 20 µM: Staphylococcus aureus; for activity at 5 µM / activity at 20 µM / activity at 50 µM: MU3, 16 h, read-out: relative growth; for inhibition at 20 µM: MU3, read-out: 20 μM + 200 μg/ml Gentamicin Growth inhibition Percentage.

Where [1] appears, read: [Cpd] 5 μM, BHI only (no gentamicin).
Where [2] appears, read: [Cpd] 20 μM, BHI only (no gentamicin).
[3] abbreviates: [Cpd] 50 μM, BHI only (no gentamicin).
Setting [4] is: MU3, read-out: 50 μM + 200 μg/ml Gentamicin Growth inhibition Percentage.

Results on seven compounds are retold here after patent US20190307729A1, “ANTIMICROBIAL COMPOUNDS AND METHODS FOR USE THEREOF” (VERSITECH LIMITED, priority 2016, published 2019).

Like-named read-outs stand apart in the source and are kept apart here.

Procedure: All screening is done in 384-well polystyrene microtiter plates (Greiner Bio-One). Overnight culture of Mu3 is washed with BHI medium 3 times, diluted and plated to give 5×10^5 CFU/mL per well. The plates are incubated at 37° C. for 16 hours and growth is monitored by optical density reading at 595 nm using an automated DTX 880 multimode detector. Screening using BHI medium is designated as the background screen. […] Sub MIC concentration of antibiotics is selected for screening. BHI containing a final concentration for gentamicin 156.25 μg/mL is used correspondingly for individual experiments. […] Screening results with various antibiotics is normalized with the background screening to calculate the percentage of growth inhibition.
Identical experimental procedures are performed as primary screening procedures, except different concentrations of selected compound are tested.
Secondary like screening was performed with different concentrations of each analogue compounds were tested with different gentamicin concentration, 50 μM, 20 μM and 5 μM compound concentration were used against, BHI containing, 0 μg/ml, 100 μg/ml and 200 μg/ml gentamicin.

For `O=C(O)CN1C(=O)/C(=C/c2ccccc2)SC1=S` [Compound 1], the relative growth is, setting by setting: under setting [1], 1.38; ([Cpd] 5 μM, [Genta] 100 ug/ml) 1.29; ([Cpd] 5 μM, [Genta] 200 ug/ml) 1.45; under setting [2], 1.22; ([Cpd] 20 μM, [Genta] 100 ug/ml) 1.1; ([Cpd] 20 μM, [Genta] 200 ug/ml) 1.05. Besides, the relative growth turned out to be 1 under setting [3]; 1.11 ([Cpd] 50 μM, [Genta] 100 ug/ml); 1.01 ([Cpd] 50 μM, [Genta] 200 ug/ml).
For the compound `COC(=O)c1ccccc1` [Compound 2], under “20 μM compound + 200 μg/ml gentamicin, S. aureus Mu3, 20 µM”, the “20 μM + 200 μg/ml Gentamicin Growth inhibition Percentage” value stood at 35%. In addition, under “MU3, read-out: 50 μM + 200 μg/ml Gentamicin Growth inhibition Percentage, 50 μM compound + 200 μg/ml gentamicin, S. aureus Mu3”, the inhibition at 50 µM was 76%. Also, the relative growth is, setting by setting: under setting [1], 1.15; ([Cpd] 5 μM, [Genta] 100 ug/ml) 1.1; ([Cpd] 5 μM, [Genta] 200 ug/ml) 1.2; under setting [2], 1.08; ([Cpd] 20 μM, [Genta] 100 ug/ml) 0.93; ([Cpd] 20 μM, [Genta] 200 ug/ml) 0.65. The relative growth is listed as 1.07 under setting [3]; 0.62 ([Cpd] 50 μM, [Genta] 100 ug/ml); “*0.24” ([Cpd] 50 μM, [Genta] 200 ug/ml).
As for `COc1cc(/C=C2\SC(=S)N(CC(=O)O)C2=O)ccc1OCc1ccc(Cl)cc1` [Compound 6], the activity at 5 µM was 120%, the activity at 20 µM came to 114%, the activity at 50 µM came to 79% and the inhibition at 20 µM worked out at 90%. Besides, the inhibition at 50 µM under setting [4] was 89%. Besides, the relative growth ([Cpd] 5 μM, [Genta] 100 ug/ml) came to 1.13. The relative growth ([Cpd] 5 μM, [Genta] 200 ug/ml) came to 1.11. The relative growth ([Cpd] 20 μM, [Genta] 100 ug/ml) is on record as 0.61. Further, the relative growth result ([Cpd] 20 μM, [Genta] 200 ug/ml) is given as “*0.1”. In addition, the relative growth entry ([Cpd] 50 μM, [Genta] 100 ug/ml) is listed as “*0.2”. Besides, the relative growth result ([Cpd] 50 μM, [Genta] 200 ug/ml) is reported as “*0.11”.
As for `COc1ccc(/C=C2\SC(=S)N(CC(=O)O)C2=O)cc1OCc1ccc(Cl)cc1` [Compound 15], the activity at 5 µM amounted to 102%, the activity at 20 µM came out at 97%, the activity at 50 µM came out at 79% and the inhibition at 20 µM is 91%. Under setting [4], the inhibition at 50 µM is 89%. Further, the relative growth ([Cpd] 5 μM, [Genta] 100 ug/ml) is recorded as 1.01. Besides, the relative growth ([Cpd] 5 μM, [Genta] 200 ug/ml) is reported as 1. For the same compound, the relative growth ([Cpd] 20 μM, [Genta] 100 ug/ml) stood at 0.52. Besides, the relative growth result ([Cpd] 20 μM, [Genta] 200 ug/ml) is reported as “*0.09”. In addition, the relative growth entry ([Cpd] 50 μM, [Genta] 100 ug/ml) is recorded as “*0.18”. The relative growth entry ([Cpd] 50 μM, [Genta] 200 ug/ml) was “*0.11”.
As to `COc1ccc(/C=C2\SC(=S)N(CC(=O)O)C2=O)cc1OCc1ccc(Cl)cc1Cl` [Compound 18], the activity at 5 µM stood at 98%, the activity at 20 µM is 85%, the activity at 50 µM stood at 97% and the inhibition at 20 µM came out at 24%. Also, the inhibition at 50 µM under setting [4] is 30%. The relative growth ([Cpd] 5 μM, [Genta] 100 ug/ml) was 0.97. Besides, the relative growth ([Cpd] 5 μM, [Genta] 200 ug/ml) is 0.9. In addition, the relative growth ([Cpd] 20 μM, [Genta] 100 ug/ml) is reported as 0.8. Besides, where the note is “[Cpd] 20 μM, [Genta] 200 ug/ml”, the relative growth came to 0.76. Further, the relative growth ([Cpd] 50 μM, [Genta] 100 ug/ml) amounted to 0.88. For the same compound, the relative growth ([Cpd] 50 μM, [Genta] 200 ug/ml) came out at 0.7.
Regarding `COc1cc(/C=C2\SC(=S)N(CC(=O)O)C2=O)ccc1OCc1ccccc1` [Compound 22], the activity at 5 µM stood at 108%, the activity at 20 µM was 101%, the activity at 50 µM was 94% and the inhibition at 20 µM was 12%. In addition, the inhibition at 50 µM under setting [4] amounted to 48%. Besides, the relative growth ([Cpd] 5 μM, [Genta] 100 ug/ml) came out at 1.08. The relative growth ([Cpd] 5 μM, [Genta] 200 ug/ml) came out at 1.05. Also, for the setting “[Cpd] 20 μM, [Genta] 100 ug/ml”, the relative growth is reported as 0.99. The relative growth ([Cpd] 20 μM, [Genta] 200 ug/ml) is listed as 0.88. The relative growth ([Cpd] 50 μM, [Genta] 100 ug/ml) is reported as 0.91. In addition, the relative growth ([Cpd] 50 μM, [Genta] 200 ug/ml) stood at 0.52.
With `COc1ccc(/C=C2\SC(=S)N(CC(=O)O)C2=O)cc1OCc1ccccc1` [Compound 24], the activity at 5 µM was 96%, the activity at 20 µM amounted to 93%, the activity at 50 µM is 92% and the inhibition at 20 µM was found to be 27%. Besides, the inhibition at 50 µM under setting [4] was 68%. In addition, for the setting “[Cpd] 5 μM, [Genta] 100 ug/ml”, the relative growth is listed as 0.94. The relative growth ([Cpd] 5 μM, [Genta] 200 ug/ml) is 0.95. Also, the relative growth ([Cpd] 20 μM, [Genta] 100 ug/ml) is listed as 0.92. The relative growth ([Cpd] 20 μM, [Genta] 200 ug/ml) amounted to 0.73. The relative growth ([Cpd] 50 μM, [Genta] 100 ug/ml) is recorded as 0.72. The relative growth result ([Cpd] 50 μM, [Genta] 200 ug/ml) is “*0.32”.
